US20100022626A1, “Modulators of cell migration and methods of identifying same” (priority 2005, published 2010)

System: H1299 cells
Assay: Phagokinetic track (PKT) assay of H1299 cells treated with cytoskeletal drugs
Type: cell-based
Details: for Track area: 4 μM Latrunculin A, 2.5 μM Nocodazole or 100 ng/ml PMA, 5 h total; for Track area / Axis ratio / Effective velocity / Major axis / Migration velocity / Minor axis / Perimeter / Roughness / Solidity: mean ± SD; for Effect on cell motility (montage images, FIG. 6): Latrunculin A 4 μM, Nocadazole 2.5 μM, PMA 100 ng/ml; for PKT area compared to control cells: Latrunculin/Nocodazole p=~0, PMA p<0.05; for Axis ratio / Effective velocity / Major axis / Migration velocity / Minor axis / Perimeter / Roughness / Solidity: same treatments
Description: Preparation of 96-wellplates: Glass-bottom 96-well plates (Cat. # 7706-2370, Whatmann, Inc., Clifton, N.J., USA) were treated for 2 hours at room temperature with 50 μl of 10 μg/ml fibronectin solution dissolved in PBS (Fibronectin, F-1141; Sigma Chemical Co., St Louis, Mo., USA). The wells were then washed twice with PBS and coated with 340 nm diameter white polystyrene latex beads (Product no. 2-300; batch no. 1344); Interfacial Dynamics Corporation-Molecular Probes Microspheres Technologies, USA. The bead suspension (3.2 ml) was centrifuged for 5 minutes at 20,800×g, and resuspended in 4 ml PBS by vortex, until all visible bead clumps were dispersed. The sedimentation procedure was then repeated, after which the beads were resuspended in 7 ml PBS, to a final concentration of […]. Aliquots of 70 μl of the bead suspension were added to each well, pre-coated with fibronectin, in the 96-well plate, and incubated at 37° C. for 2 hours, followed by gentle washing (×5 times) with PBS using a plate washer (Colombus Plus, Tecan, Switzerland). Before cells were plated, the PBS was replaced with 50 μl culture medium suitable for the particular cell type used in the assay (see FIG. 1).
Cell preparation for the phagokinetic track assay: MCF7 (ATCC-HTB-22), MDA-MB-231 (ATCC-HBT-26), and B16-F10 (ATCC-CRL-6475) cells were grown in Dulbeco's Modified Eagle's Medium (DMEM). H1299 cells (ATCC-CRL-5803) were grown in RPMI-1640. Both culture media were supplemented with 10% FCS, 2 mM glutamine, 100 international units/ml penicillin and 100 μg/ml streptomycin (Biological Industries, Beit Haemek, Israel), and placed in a 5% CO2 humidified incubator kept at 37° C. For the PKT assay, 200-400 cells (a 50 μl volume) were cultured in each well. Depending on the track dimensions, the number of the plated cells was calibrated to maximize the number of single cell tracks, yet minimize the number of intersecting tracks.
Phagokinetic track assay: In order to characterize the motile behavior of the various cell lines, MCF7, MDA-MB-231, B16-F10 and H1299 cells were plated on a monolayer of polystyrene beads. All were incubated at 37° C., 5% CO2 for 7 hours, except for the H1299 cells, which were incubated for 5 hours. The first three cell lines were grown in DMEM, and H1299 cells were grown in RPMI 1640 medium, Both media were supplemented with 10% FCS and penicillin/streptomycin antibiotic. At the end of the incubation period, cells were fixed with 3% PFA. Images were taken with a 10× objective, using the autofocus screening microscope system.
Automated microscopy: Commercially-available plates display large deviations from a plane, often exceeding 200 μm, which require adjustment of the focal plane for every image. Commonly-used autofocusing procedures, which are based on finding the highest contrast image among a focal series, are slow and not robust, particularly when low-contrast images, such as those yielded by a monolayer of micro-beads, are used. The phagokinetic tracks were therefore recorded using a cell-screening microscope described in detail (Paran et al., Methods in Enzymology, in press). The rapid, automated collection of sharp, in-focus PKT images was aided by a laser autofocus device (Liron et al., 2006, J Microsc 221, 145-51). The laser autofocus device enables precise location of the substrate surface, and guarantees sharp definition of track boundaries.
The microscope operating program and the image acquisition software was written (In-house) as an application within the UCSF Priism environment (http://msg.ucsf.edu/ive). The microscope includes a computer-controlled plate scanning stage (Prior, Cambridge UK) that defines the pattern of coverage of the well area by the individual images. For this application, images were taken using a 10×/0.4 objective, and adjacent fields were stitched together, forming a montage of the entire well, or any desired fraction of the well area. […]

Structure (SMILES)	Track area [μm^2]	Effect on cell motility (montage images, FIG. 6) (in words)	Axis ratio compared to control cells (in words)	Migration velocity compared to control cells (in words)	Roughness compared to control cells (in words)	PKT area compared to control cells (in words)	Axis ratio	Effective velocity [μm/h]	Major axis [μm]	Migration velocity [μm/h]	Minor axis [μm]	Perimeter [μm]	Roughness	Solidity	Effective velocity compared to control cells (in words)	Major axis compared to control cells (in words)	Minor axis compared to control cells (in words)	Solidity compared to control cells (in words, p<0.05)
C/C1=C/C(=O)O[C@@H]2C[C@@H](CC[C@H](C)/C=C\C=C\CC1)O[C@@](O)([C@@H]1CSC(=O)N1)C2 [Latrunculin A]	5900 ± 3500	inhibited cell motility	reduced	reduced	decreased	reduced	1.5 ± 0.4	8 ± 5	121 ± 44	10 ± 6	79 ± 19	380 ± 150	2.0 ± 0.7	0.9 ± 0.07	–	–	–	–
COC(=O)Nc1nc2ccc(C(=O)c3cccs3)cc2[nH]1 [Nocodazole]	6100 ± 3600	inhibited cell motility	reduced	reduced	decreased	reduced	1.6 ± 0.4	14 ± 8	123 ± 43	17 ± 11	78 ± 18	385 ± 140	2.1 ± 0.9	0.9 ± 0.07	–	–	–	–
CCCCCCCCCCCCCC(=O)O[C@@H]1[C@@H](C)[C@@]2(O)[C@@H](C=C(CO)C[C@]3(O)C(=O)C(C)=C[C@@H]23)[C@@H]2C(C)(C)[C@]12OC(C)=O [PMA, Phorbol 12-mirysyate 13-acetate]	14300 ± 9100	increase in cell motility	did not significantly differ	increased	increased	increased	2.1 ± 0.9	46 ± 21	220 ± 104	59 ± 26	108 ± 42	695 ± 350	2.9 ± 1.4	0.8 ± 0.1	did not significantly differ	did not significantly differ	did not significantly differ	increased
